T/C data for 16 compounds are collected here from PubChem BioAssay AID328 (DTP/NCI, 2004).

Each structure is given as a SMILES string. Where “and” joins values, the source holds several entries; their conditions need not be identical. Equal entries are not always repeated. Inconclusive results and toxic doses are left out.

For this assay, the system named is BDF1 mice, P388 leukemia ip, median survival T/C. Description: NCI In Vivo Anticancer Drug Screen. Data for tumor model P388 Leukemia (intraperitoneal) in B6D2F1 (BDF1) mice. To be noted: endpoint: median survival time, higher = longer survival. In a few lines:
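T/C = treated-group survival ÷ vehicle-control survival; tumour transplanted into mice before dosing.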

The mark [1] stands for this setting: dose: 25.0 mg/kg/injection, schedule: Q01DX009 (ip), vehicle: saline with Tween-80.
Setting [2] is: dose: 25.0 mg/kg/injection, schedule: Q01DX009 (ip), vehicle: saline.
Where [3] appears, read: dose: 50.0 mg/kg/injection, schedule: Q01DX009 (ip), vehicle: saline with Tween-80.
[4] abbreviates: dose: 50.0 mg/kg/injection, schedule: Q04DX003 (ip), vehicle: saline with Tween-80.
Setting [5] is: dose: 100.0 mg/kg/injection, schedule: Q01DX009 (ip), vehicle: saline with Tween-80.
Where [6] appears, read: dose: 100.0 mg/kg/injection, schedule: Q04DX003 (ip), vehicle: saline with Tween-80.
Setting [7] is: dose: 50.0 mg/kg/injection, schedule: Q01DX001 (ip), vehicle: saline sonified.
The mark [8] stands for this setting: dose: 50.0 mg/kg/injection, schedule: Q04DX003 (ip), vehicle: saline.
The mark [9] stands for this setting: dose: 100.0 mg/kg/injection, schedule: Q01DX009 (ip), vehicle: saline.
[10] abbreviates: dose: 100.0 mg/kg/injection, schedule: Q04DX003 (ip), vehicle: Klucel (hydroxypropylcellulose) (HPC).
[11] abbreviates: dose: 200.0 mg/kg/injection, schedule: Q01DX009 (ip), vehicle: saline.
Where [12] appears, read: dose: 200.0 mg/kg/injection, schedule: Q04DX003 (ip), vehicle: Klucel (hydroxypropylcellulose) (HPC).
[13] abbreviates: dose: 400.0 mg/kg/injection, schedule: Q04DX003 (ip), vehicle: Klucel (hydroxypropylcellulose) (HPC).
The mark [14] stands for this setting: dose: 200.0 mg/kg/injection, schedule: Q01DX009 (ip), vehicle: Klucel (hydroxypropylcellulose) (HPC).

As for `CC(C)(Br)C(=O)c1ccc([N+](=O)[O-])o1`, the T/C (dose: 0.78 mg/kg/injection, schedule: Q01DX009 (ip), vehicle: water) was 95 % of control; the T/C (dose: 1.56 mg/kg/injection, schedule: Q01DX009 (ip), vehicle: water) was 89 % of control; the T/C (dose: 3.12 mg/kg/injection, schedule: Q01DX009 (ip), vehicle: saline) was 116 % of control; the T/C (dose: 3.12 mg/kg/injection, schedule: Q01DX009 (ip), vehicle: water) was 87 % of control; the T/C (dose: 6.25 mg/kg/injection, schedule: Q01DX009 (ip), vehicle: saline) was 123 % of control; the T/C (dose: 6.25 mg/kg/injection, schedule: Q01DX009 (ip), vehicle: water) was 105 % of control. The T/C (dose: 12.5 mg/kg/injection, schedule: Q01DX009 (ip), vehicle: saline with Tween-80) was 95 % of control; the T/C (dose: 12.5 mg/kg/injection, schedule: Q01DX009 (ip), vehicle: water) was 104 % of control; the T/C under setting [1] was 100 % of control; the T/C under setting [2] was 116 % of control; the T/C (dose: 25.0 mg/kg/injection, schedule: Q04DX003 (ip), vehicle: saline with Tween-80) was 107 % of control; the T/C under setting [3] is 95 % of control. Besides, the T/C reads like this: under setting [4], 109 % of control; under setting [5], 87 % of control; under setting [6], 100 % of control.

Turning to `CCOC(=O)C(c1cccc(OC)c1)C1(C(=O)OCC)CC2(CCC1=O)OCCO2` (configuration not stated), the T/C was 104 % of control under setting [7]; 100 % of control (dose: 100.0 mg/kg/injection, schedule: Q01DX001 (ip), vehicle: saline sonified); 100 % of control (dose: 200.0 mg/kg/injection, schedule: Q01DX001 (ip), vehicle: saline sonified).

Consider `Cc1ccc(C(O)(CS(C)=O)c2ccco2)cc1` (configuration not stated), for which the T/C is, setting by setting: (dose: 50.0 mg/kg/injection, schedule: Q01DX009 (ip), vehicle: saline + alcohol) 98 % of control; (dose: 100.0 mg/kg/injection, schedule: Q01DX009 (ip), vehicle: saline + alcohol) 90 % of control.

With `COC(=O)C1=COC(C)C(C=O)C1CC(=O)O` (configuration not stated), the T/C was 113 % of control (dose: 10.0 mg/kg/injection, schedule: Q04DX003 (ip), vehicle: saline); 122 % of control (dose: 22.0 mg/kg/injection, schedule: Q04DX003 (ip), vehicle: saline); 120 % of control (dose: 33.0 mg/kg/injection, schedule: Q04DX003 (ip), vehicle: saline); 172 % of control under setting [8]; 95 % of control (dose: 75.0 mg/kg/injection, schedule: Q04DX003 (ip), vehicle: saline).

Take `Nc1nc(SCc2ccccc2Cl)c2ncn(C3OC(CO)C(O)C3O)c2n1` (configuration not stated): the T/C by setting is: under setting [9], 105 % of control; under setting [10], 100 % of control; under setting [11], 90 % of control; under setting [12], 118 % of control; under setting [13], 118 % of control.

`C1CCC2C(C1)NC1CCCCC12` (configuration not stated): the T/C by setting is: (dose: 12.0 mg/kg/injection, schedule: Q04DX003 (ip), vehicle: saline) 109 % of control; (dose: 12.5 mg/kg/injection, schedule: Q01DX001 (ip), vehicle: saline sonified) 100 % of control; (dose: 25.0 mg/kg/injection, schedule: Q01DX001 (ip), vehicle: saline sonified) 90 % of control; under setting [2], 112 % of control; (dose: 25.0 mg/kg/injection, schedule: Q04DX003 (ip), vehicle: saline) 95 % of control; under setting [7], 90 % of control. In addition, the T/C (dose: 50.0 mg/kg/injection, schedule: Q01DX009 (ip), vehicle: saline) was 104 % of control and the T/C under setting [8] is 109 % of control.

Turning to `C[C@]12CCC(=O)C=C1CC[C@@H]1[C@@H]2[C@@H](O)C[C@@]2(C)[C@H]1CC[C@]2(C)O`, the T/C under setting [5] is 86 % of control.

For `OCC1CN(c2ccccc2)N=N1` (configuration not stated), the T/C (dose: 50.0 mg/kg/injection, schedule: Q04DX002 (ip), vehicle: saline + alcohol) is 107 % of control; the T/C (dose: 100.0 mg/kg/injection, schedule: Q04DX002 (ip), vehicle: saline + alcohol) was 107 % of control; the T/C (dose: 200.0 mg/kg/injection, schedule: Q04DX002 (ip), vehicle: saline + alcohol) was 116 % of control.

Turning to `COc1cc2c(cc1OC)-c1cc3cc(OC)c(OC)cc3c(C)[n+]1CC2`, the T/C by setting is: (dose: 12.5 mg/kg/injection, schedule: Q01DX009 (ip), vehicle: Klucel (hydroxypropylcellulose) (HPC)) 106 % of control; (dose: 25.0 mg/kg/injection, schedule: Q01DX009 (ip), vehicle: Klucel (hydroxypropylcellulose) (HPC)) 106 % of control; (dose: 50.0 mg/kg/injection, schedule: Q01DX009 (ip), vehicle: Klucel (hydroxypropylcellulose) (HPC)) 113 % of control.

`COc1cc(C)c(C2NC(=O)c3ccccc3N2)cc1C` (configuration not stated): the T/C runs as follows: under setting [14], 155 % of control and 170 % of control; (dose: 265.0 mg/kg/injection, schedule: Q01DX009 (ip), vehicle: Klucel (hydroxypropylcellulose) (HPC)) 150 % of control.

For the compound `c1ccc(CSC2=NCCS2)cc1`, the T/C under setting [9] was 113 % of control; the T/C under setting [11] is 104 % of control; the T/C (dose: 400.0 mg/kg/injection, schedule: Q01DX009 (ip), vehicle: saline) was 113 % of control.

For the compound `BrCC(Br)CBr`, the T/C by setting is: under setting [3], 104 % of control; under setting [4], 100 % of control; under setting [5], 122 % of control; under setting [6], 100 % of control; (dose: 200.0 mg/kg/injection, schedule: Q04DX003 (ip), vehicle: saline with Tween-80) 104 % of control.

For `COc1cc(NC(=O)CN(CCCl)CCCl)cc(OC)c1OC`, the T/C is, setting by setting: (dose: 7.7 mg/kg/injection, schedule: Q04DX003 (ip), vehicle: Klucel (hydroxypropylcellulose) (HPC)) 107 % of control; (dose: 30.0 mg/kg/injection, schedule: Q04DX003 (ip), vehicle: Klucel (hydroxypropylcellulose) (HPC)) 122 % of control; (dose: 60.0 mg/kg/injection, schedule: Q04DX003 (ip), vehicle: Klucel (hydroxypropylcellulose) (HPC)) 104 % of control and 114 % of control; (dose: 90.0 mg/kg/injection, schedule: Q04DX003 (ip), vehicle: Klucel (hydroxypropylcellulose) (HPC)) 177 % of control; under setting [12], 209 % of control; (dose: 300.0 mg/kg/injection, schedule: Q04DX003 (ip), vehicle: Klucel (hydroxypropylcellulose) (HPC)) 122 % of control.

For `CCCC(C1=CC(C)(C)c2ccccc2C1=O)c1ccc(Br)cc1` (configuration not stated), the T/C by setting is: (dose: 75.0 mg/kg/injection, schedule: Q01DX009 (ip), vehicle: Klucel (hydroxypropylcellulose) (HPC)) 109 % of control; (dose: 100.0 mg/kg/injection, schedule: Q01DX009 (ip), vehicle: Klucel (hydroxypropylcellulose) (HPC)) 100 % of control; under setting [10], 100 % of control; (dose: 150.0 mg/kg/injection, schedule: Q01DX009 (ip), vehicle: Klucel (hydroxypropylcellulose) (HPC)) 113 % of control; under setting [14], 95 % of control and 100 % of control; under setting [12], 100 % of control. Further, the T/C is, setting by setting: (dose: 300.0 mg/kg/injection, schedule: Q01DX009 (ip), vehicle: Klucel (hydroxypropylcellulose) (HPC)) 100 % of control; (dose: 400.0 mg/kg/injection, schedule: Q01DX009 (ip), vehicle: Klucel (hydroxypropylcellulose) (HPC)) 95 % of control; under setting [13], 100 % of control.

For the compound `C1CCC2(CC1)OCCO2`, the T/C under setting [1] is 87 % of control; the T/C under setting [3] is 97 % of control; the T/C under setting [5] was 100 % of control; the T/C (dose: 200.0 mg/kg/injection, schedule: Q01DX009 (ip), vehicle: saline with Tween-80) is 106 % of control.

With `Cc1nc2ccc3nc(N)nc(N)c3c2nc1C`, the T/C was 104 % of control (dose: 50.0 mg/kg/injection, schedule: Q01DX001 (ip), vehicle: saline with Tween-80); 101 % of control (dose: 100.0 mg/kg/injection, schedule: Q01DX001 (ip), vehicle: saline with Tween-80); 111 % of control (dose: 200.0 mg/kg/injection, schedule: Q01DX001 (ip), vehicle: saline with Tween-80).
